pEC50: −log10 of the molar value.
Molecular target: Nonstructural protein 3 (Zika virus, UniProt A0A024AXB9)
Assay: Binding affinity to Zika virus NS2B-NS3 protease

Nonstructural protein 3, sequence (A0A024AXB9 whole entry): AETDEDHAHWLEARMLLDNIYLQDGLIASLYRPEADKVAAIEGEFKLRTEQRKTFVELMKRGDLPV

pEC50: 5.71
SMILES: CC1=CCC(C(=O)/N=C2\CC=C(S(=O)(=O)O)c3cc(S(=O)(=O)O)cc(S(=O)(=O)O)c32)=C/C1=N/C(=O)C1=CC=C/C(=N\C(=O)/N=C2\C=CC=C(C(=O)/N=C3/CC(C(=O)/N=C4\CC=C(S(=O)(=O)O)c5cc(S(=O)(=O)O)cc(S(=O)(=O)O)c54)=CC=C3C)C2)C1
